Where two headings read alike, the source gives them in different places. Square brackets hold non-standard residues; d marks the D form. Peptide text beside a SMILES is read from it. * marks the point of attachment. Lauroyl = CCCCCCCCCCCC(=O)*

For data set [1], the system named is horse erythrocytes.
The test system of data set [2] is X. fastidiosa subsp. fastidiosa IVIA 5387.2.
The test system is the same in data set [3]. It is filed as cell-based, Xylella fastidiosa.
The test system of data set [4] is Gram-negative bacteria. The arrangement: key: Xf: Xylella fastidiosa; Ec: Escherichia coli; Pa: Pseudomonas aeruginosa; Ab: Acinetobacter baumannii; Kp: Klebsiella pneumoniae; Bc: Burkholderia cenocepacia; Se: Salmonella enterica subsp. enterica; Sp: Salmonella pullorum; –: low or no activity. As to conditions: cited from earlier work.
For data set [5], the system named is Gram-negative bacteria. The arrangement: key: Xf: Xylella fastidiosa; Ec: Escherichia coli; Pa: Pseudomonas aeruginosa; Ab: Acinetobacter baumannii; Kp: Klebsiella pneumoniae; Bc: Burkholderia cenocepacia; Se: Salmonella enterica subsp. enterica; Sp: Salmonella pullorum; –: low or no activity. The note with it: cited from earlier work. This is another data set of the same source.

As for `CCCCCCCCCCCC(=O)N[C@H](C(=O)N[C@@H](CC(C)C)C(=O)N1CCC[C@H]1C(=O)N[C@H](Cc1ccccc1)C(=O)N[C@@H](CCCCN)C(=O)N[C@H](Cc1ccccc1)C(=O)N1CCC[C@H]1C(=O)N[C@H](Cc1ccccc1)C(=O)N[C@H](Cc1ccccc1)C(=O)N1CCC[C@H]1C(=O)N[C@H](Cc1ccccc1)C(=O)N[C@@H](CCCNC(=N)N)C(=O)N[C@@H](CCCNC(=N)N)C(N)=O)[C@@H](C)CC` [BP528] (Lauroyl-ILP[dF]K[dF]P[dF][dF]P[dF]RR-NH2), the Hemolysis in data set [1] (150 µM) is 92.1 ± 5.7%. The molecule also had a Hemolysis in data set [1] (250 µM) of 96.6 ± 3.1%. In data set [1] (375 µM), this molecule returned a Hemolysis of 99.1 ± 8.0%. Also, the “Bactericidal activity: Reduction in viability (Log N0/N)” value in data set [2] (50 µM) was determined as 0.61 ± 0.12 Log N0/N. Moreover, in data set [3] (50 µM), the “Biofilm formation Level (antibiofilm activity)” value (“Biofilm formation Level” for short) was “High (key: High: high antibiofilm activity (ratio of biofilm formation from 0.01 to 0.2); Moderate: moderate activity (ratio from 0.29 to 0.47); Low: low activity (ratio from 0.72 to 0.77))”, the “Biofilm formation Ratio (treatment/NTC)” value came out at 0.03 ± 0.01 and the “Planktonic cells Ratio (treatment/NTC)” value worked out at 0.99 ± 0.06.
Consider `CC[C@H](C)[C@H](NC(=O)[C@H](CCCNC(=N)N)NC(=O)[C@@H](N)Cc1ccccc1)C(=O)N[C@@H](CCCNC(=N)N)C(=O)N[C@H](C(=O)N[C@@H](CCCNC(=N)N)C(=O)N[C@H](C(N)=O)C(C)C)C(C)C` [FV7] (H-FRIRVRV-NH2; N-terminus assumed), for which the Hemolysis in data set [1] (150 µM) came to 3.7 ± 0.4%. In data set [1] (250 µM), this molecule displayed a Hemolysis of 4.4 ± 0.3%. Besides, in data set [1] (375 µM), the Hemolysis is 9.5 ± 1.4%. The “Bactericidal activity: Reduction in viability (Log N0/N)” value in data set [2] (50 µM) is 0.07 ± 0.14 Log N0/N. In data set [4], the “Described activity: Antibiofilm” value was “Ec, Pa”. The “Described activity: Antibacterial” value in data set [5] is listed as “Ec, Pa, Se, Sp”. For the same molecule, in data set [3] (50 µM), the “Biofilm formation Level” value is given as “High (key: High: high antibiofilm activity (ratio of biofilm formation from 0.01 to 0.2); Moderate: moderate activity (ratio from 0.29 to 0.47); Low: low activity (ratio from 0.72 to 0.77))”, the “Biofilm formation Ratio (treatment/NTC)” value came to 0.20 ± 0.01 and the “Planktonic cells Ratio (treatment/NTC)” value came to 1.33 ± 0.17.
Take `CC[C@H](C)[C@H](NC(=O)[C@H](CCCNC(=N)N)NC(=O)[C@H](Cc1ccccc1)NC(=O)[C@H](CCCNC(=N)N)NC(=O)[C@@H](N)CCCCN)C(=O)N[C@@H](CCCNC(=N)N)C(=O)N[C@H](C(=O)N[C@@H](CCCNC(=N)N)C(=O)N[C@H](C(=O)N[C@H](C(=O)N[C@@H](CCCNC(=N)N)C(=O)N[C@@H](CCCCN)C(N)=O)[C@@H](C)CC)C(C)C)C(C)C` [HH15] (H-KRFRIRVRVIRK-NH2): the Hemolysis in data set [1] (150 µM) came out at 2.3 ± 0.3%. Further, the Hemolysis in data set [1] (250 µM) was found to be 4.5 ± 1.9%. Further, the Hemolysis in data set [1] (375 µM) is given as 4.0 ± 0.4%. Also, the “Bactericidal activity: Reduction in viability (Log N0/N)” value in data set [2] is given as 0.21 ± 0.02 Log N0/N. In addition, the “Described activity: Antibiofilm” value in data set [4] was “Pa, Bc”. Moreover, in data set [5], the “Described activity: Antibacterial” value is “Pa, Bc”. In data set [3], the “Biofilm formation Level” value was “High (key: High: high antibiofilm activity (ratio of biofilm formation from 0.01 to 0.2); Moderate: moderate activity (ratio from 0.29 to 0.47); Low: low activity (ratio from 0.72 to 0.77))”, the “Biofilm formation Ratio (treatment/NTC)” value amounted to 0.14 ± 0.01 and the “Planktonic cells Ratio (treatment/NTC)” value came to 2.50 ± 0.05.
For the molecule `CC[C@H](C)[C@H](NC(=O)CN)C(=O)N[C@@H](CC(C)C)C(=O)NCC(=O)N[C@@H](CCCCN)C(=O)N[C@@H](CC(C)C)C(=O)N[C@@H](Cc1c[nH]c2ccccc12)C(=O)N[C@@H](CCC(=O)O)C(=O)NCC(=O)N[C@H](C(=O)N[C@@H](CCCCN)C(=O)N[C@@H](CO)C(=O)N[C@H](C(=O)N[C@@H](Cc1ccccc1)C(N)=O)[C@@H](C)CC)C(C)C` [HP1404] (H-GILGKLWEGVKSIF-NH2), the Hemolysis in data set [1] (150 µM) is 100.0 ± 0.5%; in data set [1] (250 µM) it was 100.0 ± 3.9%; in data set [1] (375 µM), 100.0 ± 0.7%. Further, the “Bactericidal activity: Reduction in viability (Log N0/N)” value in data set [2] is 0.00 ± 0.12 Log N0/N. Also, in data set [4], the “Described activity: Antibiofilm” value is listed as “Pa”. Besides, in data set [5], the “Described activity: Antibacterial” value was “Pa”. The “Biofilm formation Level” value in data set [3] is on record as “High (key: High: high antibiofilm activity (ratio of biofilm formation from 0.01 to 0.2); Moderate: moderate activity (ratio from 0.29 to 0.47); Low: low activity (ratio from 0.72 to 0.77))”. Besides, the “Biofilm formation Ratio (treatment/NTC)” value in data set [3] turned out to be 0.15 ± 0.01. Further, the “Planktonic cells Ratio (treatment/NTC)” value in data set [3] came out at 2.75 ± 0.02.
Consider `CC[C@H](C)[C@H](N)C(=O)N[C@@H](CC(C)C)C(=O)N1CCC[C@H]1C(=O)N[C@@H](Cc1c[nH]c2ccccc12)C(=O)N[C@@H](CCCCN)C(=O)N[C@@H](Cc1c[nH]c2ccccc12)C(=O)N1CCC[C@H]1C(=O)N[C@@H](Cc1c[nH]c2ccccc12)C(=O)N[C@@H](Cc1c[nH]c2ccccc12)C(=O)N1CCC[C@H]1C(=O)N[C@@H](Cc1c[nH]c2ccccc12)C(=O)N[C@@H](CCCNC(=N)N)C(=O)N[C@@H](CCCNC(=N)N)C(N)=O` [Indolicidin], for which, in data set [1] (150 µM), the Hemolysis amounted to 95.1 ± 5.0%. Further, the Hemolysis in data set [1] (250 µM) was 100.0 ± 4.4%. The Hemolysis in data set [1] (375 µM) is 100.0 ± 2.5%. Besides, in data set [2], the “Bactericidal activity: Reduction in viability (Log N0/N)” value is given as 2.46 ± 0.11 Log N0/N. In data set [2] (3 h, 50 μM), the “log reduction of cell viability” value is recorded as 2-3 log. Moreover, the “Described activity: Antibacterial” value in data set [5] is reported as “Xf”. In data set [3], the “Biofilm formation Level” value is “High (key: High: high antibiofilm activity (ratio of biofilm formation from 0.01 to 0.2); Moderate: moderate activity (ratio from 0.29 to 0.47); Low: low activity (ratio from 0.72 to 0.77))”, the “Biofilm formation Ratio (treatment/NTC)” value is on record as 0.09 ± 0.01 and the “Planktonic cells Ratio (treatment/NTC)” value amounted to 0.46 ± 0.07.
In the case of `CC[C@H](C)[C@H](NC(=O)[C@H](CCCNC(=N)N)NC(=O)[C@H](CCCNC(=N)N)NC(=O)[C@H](Cc1c[nH]c2ccccc12)NC(=O)[C@H](Cc1ccccc1)NC(=O)[C@@H](N)C(C)C)C(=O)N[C@@H](CCCNC(=N)N)C(=O)N[C@H](C(=O)N[C@@H](Cc1c[nH]c2ccccc12)C(=O)N[C@H](C(=O)N[C@H](C(=O)N[C@@H](CCCNC(=N)N)C(N)=O)[C@@H](C)CC)C(C)C)C(C)C` [LJK2] (H-VFWRRIRVWVIR-NH2), the values for the Hemolysis in data set [1] (150 µM), in data set [1] (250 µM) and in data set [1] (375 µM) were 28.4 ± 1.9%, 43.9 ± 3.7% and 72.4 ± 8.9%, respectively. Also, the “Bactericidal activity: Reduction in viability (Log N0/N)” value in data set [2] was 0.80 ± 0.10 Log N0/N. Further, the “Effect on X. fastidiosa growth in the antibiofilm test” value in data set [3] is on record as “affected X. fastidiosa’s growth”.
Take `CC[C@H](C)[C@H](NC(=O)[C@H](CCCNC(=N)N)NC(=O)[C@@H](NC(=O)[C@H](Cc1c[nH]c2ccccc12)NC(=O)[C@@H](NC(=O)[C@@H](NC(=O)[C@@H](N)CCCNC(=N)N)[C@@H](C)CC)C(C)C)C(C)C)C(=O)N[C@@H](CCCNC(=N)N)C(=O)N[C@@H](CCCNC(=N)N)C(=O)N[C@@H](Cc1c[nH]c2ccccc12)C(=O)N[C@@H](Cc1ccccc1)C(=O)N[C@H](C(N)=O)C(C)C` [RJK2] (H-RIVWVRIRRWFV-NH2): the Hemolysis in data set [1] (150 µM) stood at 19.2 ± 3.1%. The Hemolysis in data set [1] (250 µM) worked out at 29.6 ± 2.2%. In data set [1] (375 µM), this molecule had a Hemolysis of 50.2 ± 5.4%. Also, the “Bactericidal activity: Reduction in viability (Log N0/N)” value in data set [2] (50 µM) is listed as 0.70 ± 0.08 Log N0/N. For the same molecule, in data set [3] (50 µM), the “Biofilm formation Level” value was “High (key: High: high antibiofilm activity (ratio of biofilm formation from 0.01 to 0.2); Moderate: moderate activity (ratio from 0.29 to 0.47); Low: low activity (ratio from 0.72 to 0.77))”, the “Biofilm formation Ratio (treatment/NTC)” value stood at 0.02 ± 0.00 and the “Planktonic cells Ratio (treatment/NTC)” value came out at 1.54 ± 0.07.
Molecule HOC11H22CO-ILPFKFPFFPFRR-NH2 [BP529] registered a Hemolysis in data set [1] (150 µM) of 7.2 ± 0.3%. In addition, the Hemolysis in data set [1] (250 µM) is reported as 12.5 ± 0.6%. This molecule gave a Hemolysis in data set [1] (375 µM) of 39.0 ± 1.1%. The “Bactericidal activity: Reduction in viability (Log N0/N)” value in data set [2] (50 µM) is reported as 0.62 ± 0.09 Log N0/N. Also, in data set [3] (50 µM), the “Biofilm formation Level” value was “High (key: High: high antibiofilm activity (ratio of biofilm formation from 0.01 to 0.2); Moderate: moderate activity (ratio from 0.29 to 0.47); Low: low activity (ratio from 0.72 to 0.77))”, the “Biofilm formation Ratio (treatment/NTC)” value stood at 0.12 ± 0.03 and the “Planktonic cells Ratio (treatment/NTC)” value amounted to 2.29 ± 0.03.
As to Magainin 2, the Hemolysis is reported as 35.2 ± 1.1% in data set [1] (150 µM), 54.5 ± 3.7% in data set [1] (250 µM) and 71.1 ± 6.0% in data set [1] (375 µM). Besides, the “Bactericidal activity: Reduction in viability (Log N0/N)” value is listed as 0.49 ± 0.10 Log N0/N in data set [2] (3.1 µM), 2.07 ± 0.12 Log N0/N in data set [2] (12.5 μM) and 3.29 ± 0.11 Log N0/N in data set [2] (50 µM). The log reduction result in data set [2] (3.1 µM) is “poorly active”; in data set [2] (12.5 μM), 2 log. For the same molecule, the “Described activity: Antibacterial” value in data set [5] is on record as “Xf”. For the same molecule, in data set [3] (12.5 μM), the “Biofilm formation Level” value was “Moderate (key: High: high antibiofilm activity (ratio of biofilm formation from 0.01 to 0.2); Moderate: moderate activity (ratio from 0.29 to 0.47); Low: low activity (ratio from 0.72 to 0.77))”. For the same molecule, the “Biofilm formation Ratio (treatment/NTC)” value in data set [3] (28°C, 5 days) came to 0.47 ± 0.02. In addition, in data set [3] (28°C, 5 days), the “Planktonic cells Ratio (treatment/NTC)” value amounted to 1.59 ± 0.13.

(Values after PMC8606745 (Frontiers in Microbiology, 2021).)
